Source: patent US9730940B2, “Purine inhibitors of human phosphatidylinositol 3-kinase delta” (priority 2012, dated 2017)

Each compound was assayed against PI3K-alpha (Homo sapiens (Human), UniProt P42336) (assay: HTRF PI3K biochemical assay, alpha isoform). Conditions: ratio PI3K-alpha IC50 value/PI3K-delta IC50 value.
From the text: HTRF PI3K Biochemical Assay to Measure Intrinsic Potency of Compound Inhibitors
The PI3-Kinase biochemical assays were developed to measure the intrinsic potency and compound dependent inhibition of the alpha, beta, delta, and gamma PI3K isoform enzymes. This assay was developed and further optimized from a kit produced by Upstate (Millipore catalog #33-047) and has been configured for HTS and SAR screening. Briefly, this procedure exploits the exquisite specificity and high affinity binding of enzyme reaction substrate phosphatidyl(3,4,5)triphosphate (PIP3) to the GRP1 pleckstrin homology (PH) domain to generate the signal. In the absence of PIP3, an HTRF (Homogeneous Time-Resolved Fluorescence energy transfer) complex is formed consisting of europium (Eu)-labeled anti-GST, GST tagged GRP1-PH domain, biotin-PIP3 and streptavidin conjugated APC. The native PIP3 produced by PI3-Kinase activity disrupts in a competitive manner the biotin-PIP3 from the PH domain, resulting in the loss of energy transfer (HTRF complex) and a decrease in the signal. The format of this assay is the same for all 4 isoforms of PI3K; the differences lie in the concentration of enzyme used to achieve robust assay window. The alpha, beta, and delta assays are run at 0.5, 1, and 0.3 nM enzymes and the gamma assay is run at 5 nM enzyme. The ATP concentration is 100 uM in the alpha, beta, and delta assays and 50 uM ATP in the gamma assay. All reactions are run at 5 uM PIP2.
Compounds are serially diluted (3-fold in 100% DMSO) across a 384-well polypropylene source plated from column 3 to column 12 and column 13 to column 22, to yield 10 concentration dose response for each test compound. Columns 1, 2, 23 and 24 contain either only DMSO or pharmacological known control inhibitor.
The PI3-Kinase biochemical assay was optimized using the HTRF kit provided by Upstate (Millipore). The assay kit contains six reagents: 1) 4× Reaction Buffer; 2) native PIP2 (substrate); 3) Stop (EDTA); 4) Detection Mix A (Streptavidin-APC); 5) Detection Mix B (Eu-labeled Anti-GST plus GST-tagged PH-domain); 6) Detection Mix C.
PI3Kinase Reaction Buffer is prepared by dilution the stock 1:4 with de-ionized water. […] Enzyme addition and compound pre-incubation are initiated by the addition of 1.25 ul of PI3K (at twice its final concentration) in the 1× reaction buffer to all wells using a BioRaptor. Plates are incubated at room temperature for 15 minutes. Reactions are initiated by addition of 1.25 ul of 2× substrate solution (PIP2 and ATP in 1× reaction buffer) using BioRaptor. Plates are incubated in humidified chamber at room temperature for one hour. Reactions are quenched by addition of 0.625 uL of stop solution to all wells using the BioRaptor. The quenched reactions are then processed to detect product formation by adding 0.625 uL of Detection Solution to all wells using the BioRaptor (Detection mix C, Detection Mix A, and Detection Mix B combined together in an 18:1:1 ratio prepared 2 hours prior to use).
The loss of the HTRF signal is due to the displacement of biotinylated-PIP3 from the PH domain by the PI3K-dependent conversion of PIP2 to PIP3. This loss of signal is nonlinear with respect to both increasing product and time. This non-linear detection will impact accuracy of IC50 calculations; therefore, there is a need for a correction factor to obtain more accurate IC50 values. This correction is derived from a PIP3 standard curve run in a separate assay plate. All data were calculated using the ratio of acceptor (APC) to donor (Europium) fluorescence in each well of the assay plate. […] An IC50 was then calculated fitting the % inhibition data to the equation: % inhibition=min+(Max−min)/1+([inhibitor]/IC50)^n) where min is the % inhibition […], max is the signal in DMSO control, and n is the Hill slope.

Chain of PI3K-alpha (P42336 whole entry, looked up, canonical isoform): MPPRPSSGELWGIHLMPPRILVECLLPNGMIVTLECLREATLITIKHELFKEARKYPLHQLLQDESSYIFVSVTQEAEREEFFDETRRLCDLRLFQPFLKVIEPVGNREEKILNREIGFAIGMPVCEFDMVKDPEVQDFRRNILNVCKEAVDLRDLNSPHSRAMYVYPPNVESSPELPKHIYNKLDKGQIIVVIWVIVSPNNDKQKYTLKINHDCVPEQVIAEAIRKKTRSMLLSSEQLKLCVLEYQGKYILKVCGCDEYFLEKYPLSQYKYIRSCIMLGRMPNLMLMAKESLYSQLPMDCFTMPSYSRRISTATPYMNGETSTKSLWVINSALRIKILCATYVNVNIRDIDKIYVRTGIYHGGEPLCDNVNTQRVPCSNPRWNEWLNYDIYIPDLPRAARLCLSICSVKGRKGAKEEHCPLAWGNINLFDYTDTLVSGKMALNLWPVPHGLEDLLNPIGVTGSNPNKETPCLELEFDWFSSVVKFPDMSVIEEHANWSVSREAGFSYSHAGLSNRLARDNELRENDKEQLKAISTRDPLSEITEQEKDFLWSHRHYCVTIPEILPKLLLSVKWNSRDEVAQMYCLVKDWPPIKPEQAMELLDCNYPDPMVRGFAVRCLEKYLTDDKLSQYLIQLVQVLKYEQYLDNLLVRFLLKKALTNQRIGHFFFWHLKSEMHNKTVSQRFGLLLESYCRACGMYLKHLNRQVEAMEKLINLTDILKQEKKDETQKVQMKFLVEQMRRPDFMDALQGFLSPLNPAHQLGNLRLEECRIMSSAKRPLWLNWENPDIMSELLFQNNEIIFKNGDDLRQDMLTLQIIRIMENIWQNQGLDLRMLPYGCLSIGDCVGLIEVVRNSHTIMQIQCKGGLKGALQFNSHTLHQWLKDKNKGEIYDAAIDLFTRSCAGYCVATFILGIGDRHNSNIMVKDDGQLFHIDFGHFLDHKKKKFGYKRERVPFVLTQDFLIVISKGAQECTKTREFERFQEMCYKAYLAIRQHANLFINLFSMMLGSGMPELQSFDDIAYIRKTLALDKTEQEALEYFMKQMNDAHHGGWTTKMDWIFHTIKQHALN
Chain of PI3K-alpha (P27986 whole entry partner, looked up, canonical isoform): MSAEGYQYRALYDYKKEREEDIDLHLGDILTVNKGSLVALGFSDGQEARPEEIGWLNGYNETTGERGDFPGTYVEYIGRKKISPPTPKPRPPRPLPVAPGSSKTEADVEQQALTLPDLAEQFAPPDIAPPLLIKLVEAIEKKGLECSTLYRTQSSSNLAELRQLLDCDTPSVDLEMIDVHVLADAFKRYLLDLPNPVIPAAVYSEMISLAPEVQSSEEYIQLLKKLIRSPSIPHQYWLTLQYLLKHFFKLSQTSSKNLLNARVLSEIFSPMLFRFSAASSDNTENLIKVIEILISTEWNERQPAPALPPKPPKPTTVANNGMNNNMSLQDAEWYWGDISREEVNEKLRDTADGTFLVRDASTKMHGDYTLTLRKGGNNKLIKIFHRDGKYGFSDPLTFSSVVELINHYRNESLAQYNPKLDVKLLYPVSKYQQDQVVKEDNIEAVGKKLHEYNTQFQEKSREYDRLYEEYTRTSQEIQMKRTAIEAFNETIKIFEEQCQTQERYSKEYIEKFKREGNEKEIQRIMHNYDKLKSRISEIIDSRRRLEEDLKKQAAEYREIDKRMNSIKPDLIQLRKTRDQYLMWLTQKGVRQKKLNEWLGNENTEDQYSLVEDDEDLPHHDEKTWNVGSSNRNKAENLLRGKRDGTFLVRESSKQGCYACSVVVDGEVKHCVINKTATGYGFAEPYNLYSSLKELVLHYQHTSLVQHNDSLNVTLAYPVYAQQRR

Structure (SMILES) | Relative Selectivity versus PI3Kalpha
Cn1c(-c2ccc(-n3ccnc3)cc2)nc2c(O[C@H]3CCN(C(=O)OC(C)(C)C)C3)ncnc21 [Compound 1-25, tert-butyl (3S)-3-({8-[4-(1H-imidazol-1-yl)phenyl]-9-methyl-9H-purin-6-yl}oxy)pyrrolidine-1-carboxylate] | >10
Cc1n[nH]cc1-c1nc2c(O[C@H]3CCN(C(=O)OC(C)(C)C)C3)ncnc2n1C [Compound 1-26, tert-butyl (3S)-3-{[9-methyl-8-(3-methyl-1H-pyrazol-4-yl)-9H-purin-6-yl]oxy}pyrrolidine-1-carboxylate] | >10
Cn1c(-c2ccc(N3CCCC3)nc2)nc2c(O[C@H]3CCN(C(=O)OC(C)(C)C)C3)ncnc21 [Compound 1-27, tert-butyl (3S)-3-{[9-methyl-8-(6-pyrrolidin-1-ylpyridin-3-yl)-9H-purin-6-yl]oxy}pyrrolidine-1-carboxylate] | >10
Cn1c(-c2cncc3ccccc23)nc2c(O[C@H]3CCN(C(=O)OC(C)(C)C)C3)ncnc21 [Compound 1-28, tert-butyl (3S)-3-[(8-isoquinolin-4-yl-9-methyl-9H-purin-6-yl)oxy]pyrrolidine-1-carboxylate] | >10
Cn1c(-c2ccc3[nH]ncc3c2)nc2c(O[C@H]3CCN(C(=O)OC(C)(C)C)C3)ncnc21 [Compound 1-29, tert-butyl (3S)-3-{[8-(1H-indazol-5-yl)-9-methyl-9H-purin-6-yl]oxy}pyrrolidine-1-carboxylate] | >10
CCn1ncc(-c2nc3c(OC4CC(C)N(C(=O)OC(C)(C)C)C4)ncnc3n2C)c1C (stereo not drawn) [Compound 1-30, tert-butyl 4-((8-(1-ethyl-5-methyl-1H-pyrazol-4-yl)-9-methyl-9H-purin-6-yl)oxy)-2-methylpyrrolidine-1-carboxylate] | 3
COC1CC(c2nc3c(OC4CCN(C(=O)OC(C)(C)C)C4)ncnc3n2C)C1 [Compound 1-31, (S)-tert-butyl 3-((8-(3-methoxycyclobutyl)-9-methyl-9H-purin-6-yl)oxy)pyrrolidine-1-carboxylate] | >5
Cn1cnc2c(O[C@H]3CCN(C(=O)OC(C)(C)C)C3)ncnc21 [Compound 1-32, (S)-tert-butyl 3-((9-methyl-9H-purin-6-yl)oxy)pyrrolidine-1-carboxylate] | >7
Cc1n[nH]c2ncc(-c3nc4c(O[C@H]5CCN(C(=O)OC(C)(C)C)C5)ncnc4n3C)cc12 [Compound 1-33, (S)-tert-butyl 3-((9-methyl-8-(3-methyl-1H-pyrazolo[3,4-b]pyridin-5-yl)-9H-purin-6-yl)oxy}pyrrolidine-1-carboxylate] | >10
CCn1c(-c2cnc(OC)c(C)c2)nc2c(O[C@H]3CCN(C(=O)OC(C)(C)C)C3)ncnc21 [Compound 1-34, tert-butyl (3S)-3-{[9-ethyl-8-(6-methoxy-5-methylpyridin-3-yl)-9H-purin-6-yl]oxy}pyrrolidine-1-carboxylate] | >10
CCn1c(-c2cnc(C(C)(C)C)s2)nc2c(O[C@H]3CCN(C(=O)OC(C)(C)C)C3)ncnc21 [Compound 1-35, tert-butyl (3S)-3-{[8-(2-tert-butyl-1,3-thiazol-5-yl)-9-ethyl-9H-purin-6-yl]oxy}pyrrolidine-1-carboxylate] | >10
CCn1ncc(-c2nc3c(O[C@H]4CCN(C(=O)OC)C4)ncnc3n2C)c1C [Compound 1-36, methyl (3S)-3-{[8-(1-ethyl-5-methyl-1H-pyrazol-4-yl)-9-methyl-9H-purin-6-yl]oxy}pyrrolidine-1-carboxylate] | >10
CCOC(=O)N1CC[C@H](Oc2ncnc3c2nc(-c2cnn(CC)c2C)n3C)C1 [Compound 1-37, ethyl (3S)-3-{[8-(1-ethyl-5-methyl-1H-pyrazol-4-yl)-9-methyl-9H-purin-6-yl]oxy}pyrrolidine-1-carboxylate] | >10
CCn1ncc(-c2nc3c(O[C@H]4CCN(C(=O)OC(C)C)C4)ncnc3n2C)c1C [Compound 1-38, 1-methylethyl (3S)-3-{[8-(1-ethyl-5-methyl-1H-pyrazol-4-yl)-9-methyl-9H-purin-6-yl]oxy}pyrrolidine-1-carboxylate] | >10
Cn1c(-c2cnc(C(C)(C)C)s2)nc2c(O[C@H]3CCN(C(=O)OC(C)(C)C)C3)ncnc21 [Compound 1-39, tert-butyl (3S)-3-{[8-(2-tert-butyl-1,3-thiazol-5-yl)-9-methyl-9H-purin-6-yl]oxy}pyrrolidine-1-carboxylate] | >10
CCn1ncc(-c2nc3c(OC4CN(C(=O)OC(C)(C)C)C4)ncnc3n2C)c1C [Compound 1-40, tert-butyl 3-((8-(1-ethyl-5-methyl-1H-pyrazol-4-yl)-9-methyl-9H-purin-6-yl)oxy)azetidine-1-carboxylate] | >10
CCn1ncc(-c2nc3c(O[C@H]4CCCN(C(=O)OC(C)(C)C)C4)ncnc3n2C)c1C [Compound 1-41, (S)-tert-butyl 3-((8-(1-ethyl-5-methyl-1H-pyrazol-4-yl)-9-methyl-9H-purin-6-yl)oxy)piperidine-1-carboxylate] | >10
CCn1ncc(-c2nc3c(O[C@@H]4CCCN(C(=O)OC(C)(C)C)C4)ncnc3n2C)c1C [Compound 1-42, (R)-tert-butyl 3-((8-(1-ethyl-5-methyl-1H-pyrazol-4-yl)-9-methyl-9H-purin-6-yl)oxy)piperidine-1-carboxylate] | >2
CCOC(=O)N1CC[C@H](Oc2ncnc3c2nc(-c2cnc(C)nc2)n3CC)C1 [Compound 1-43, (S)-ethyl 3-{[9-ethyl-8-(2-methylpyrimidin-5-yl)-9H-purin-6-yl]oxy}pyrrolidine-1-carboxylate] | >10
CCn1c(-c2cnc(C)nc2)nc2c(OC3CN(C(=O)OC(C)(C)C)CC3F)ncnc21 [Compound 1-44, [(3S,4S) and (3R,4R)]-tert-butyl 3-{[9-ethyl-8-(2-methylpyrimidin-5-yl)-9H-purin-6-yl]oxy}-4-fluoropyrrolidine-1-carboxylate] | >10
CCC1CN(C(=O)OCc2ccccc2)CC1Oc1ncnc2c1nc(-c1cnc(C)nc1)n2CC [Compound 1-45, [(3S,4R) and (3R,4S)]-benzyl 3-ethyl-4-{[9-ethyl-8-(2-methylpyrimidin-5-yl)-9H-purin-6-yl]oxy}pyrrolidine-1-carboxylate] | >10
CCn1c(-c2cnc(C)nc2)nc2c(OC3CN(C(=O)OC(C)(C)C)CC3O)ncnc21 [Compound 1-46, [(3S,4S) and (3R,4R)]-tert-butyl 3-{[9-ethyl-8-(2-methylpyrimidin-5-yl)-9H-purin-6-yl]oxy}-4-hydroxypyrrolidine-1-carboxylate] | >10
CCn1c(-c2cnc(C)nc2)nc2c(OC3CN(C(=O)OC(C)(C)C)CC3(F)F)ncnc21 (stereo not drawn) [Compound 1-47, (4S and 4R)-tert-butyl 4-{[9-ethyl-8-(2-methylpyrimidin-5-yl)-9H-purin-6-yl]oxy}-3,3-difluoropyrrolidine-1-carboxylate] | >10
CCn1c(-c2cnc(C)nc2)nc2c(O[C@H]3CCN(C(=O)OC(C)(C)C)[C@@H]3C)ncnc21 [Compound 1-48, tert-butyl (2R,3S)-3-{[9-ethyl-8-(2-methylpyrimidin-5-yl)-9H-purin-6-yl]oxy}-2-methylpyrrolidine-1-carboxylate] | >10
